Results published in EP0375414B1, “Substituted guanidine and amidine compounds, their production and fungicidal use” (DowElanco, priority 1988, dated 1990).

Columns and labels:
[1] = test system: Erysiphe graminis Hordei; assay: In vivo screen, Erysiphe graminis Hordei on barley; set-up: species or system Barley cv. Golden Promise; conditions: 400 ppm sprayed to run off, inoculated 24 hours later, barley at 1 leaf stage, scored after 7 days, percent control vs acetone-water control plants
Procedure: Barley cv. Golden Promise is used as the host plant. Seeds are sown 8 per 3 in. […] After a week symptoms are recorded. […] The percent control is then recorded.

[2] = test system: Puccinia recondita; assay: In vivo screen, Puccinia recondita on wheat; set-up: species or system Wheat cv. Tonic; conditions: 400 ppm sprayed to run off, inoculated 24 hours later, wheat seedlings, incubated 4 days, percent control vs acetone-water control plants
Procedure: Wheat cv. Tonic is used as the host plant. […] The tray is 60 cm x 30 cm.
Percent control is then recorded.

[3] = test system: Host Plants; assay: Phytotoxicity to host plants in the in vivo screen; conditions: 400 ppm sprayed to run off, host plants of the in vivo screen
Procedure: For each compound 3 replicate plants per pathogen at the 1 leaf stage are sprayed to run off. The plants are allowed to dry at room temperature for 24 hours prior to inoculation.
Untreated control plants and plants sprayed with 10 percent acetone-water or water alone (as required) are included for each pathogen.
Barley cv. Golden Promise is used as the host plant. Seeds are sown 8 per 3 in. (7.5 cm) pot and allowed to germinate and the plants are treated when they are approximately 2 weeks old. Spores are blown onto the test plants from the stock plants, which are then incubated at 20°C, relative humidity 70 percent for 7 days. After a week symptoms are recorded. The percent infection is scored from 3 replicate plants and expressed as a percent of the infection on the acetone-water control plants. The percent control is then recorded.
Wheat cv. Tonic is used as the host plant. Seeds are sown 1 cm deep in 4 rows per plastic tray. The tray is 60 cm x 30 cm. Seedlings grown to the 1-2 leaf stage are then inoculated. Into 100 mL of distilled water is placed 0.05 g of uredospores with a melting agent. This solution is sprayed onto the seedlings leaving a fine coverage on the leaves. The plants are then incubated with 100 percent relative humidity at 15-20°C for 4 days.

SMILES	Percent Efficacy, Erysiphe graminis [1]	Percent Efficacy, Puccinia recondita [2]	Percent Phytotoxicity to Host Plants [3]
CC1CC(C)NC(N2CC[C@@H](c3ccc(C(C)(C)C)cc3)[C@@H]2C)=N1.Cl (relative stereo) [Example 6, Trans N-(4,6-dimethyltetrahydropyrimidin-2-yl)-2-methyl-3-(4-t-butylphenyl)pyrrolidinium chloride]	100%	0%	0%
CC1CC(C)NC(N2CC[C@H](c3ccc(C(C)(C)C)cc3)[C@@H]2C)=N1.Cl (relative stereo) [Example 5, Cis N-(4,6-dimethyltetrahydropyrimidin-2-yl)-2-methyl-3-(4-t-butylphenyl)pyrrolidinium chloride]	52%	100%	0%
C[C@H]1[C@H](c2ccc(C(C)(C)C)cc2)CCN1C1=NCCCN1.Cl (relative stereo) [Example 4, Trans N-(tetrahydropyrimidin-2-yl)-2-methyl,3-(4-t-butylphenyl)pyrrolidinium chloride]	87%	66%	–
CC(=O)O.C[C@H]1[C@@H](c2ccc(C(C)(C)C)cc2)CCN1C1=NCCCN1 (relative stereo) [Example 1, Cis N-(tetrahydropyrimidin-2-yl)-2-methyl-3-(4-t-butylphenyl)pyrrolidinium acetate]	100%	0%	0%
CC(=O)O.C[C@H]1[C@H](c2ccc(C(C)(C)C)cc2)CCN1C1=NCCCN1 (relative stereo) [Example 2, trans N-(tetrahydropyrimidin-2-yl)-2-methyl-3-(4-t-butylphenyl)pyrrolidine acetate]	83%	0%	0%
CCCCCCCC[C@H]1CCN(C2=NCCCN2)[C@H]1C.Cl (relative stereo) [Example 7, Cis N-(tetrahydropyrimidin-2-yl)-2-methyl-3-octyl pyrrolidinium chloride]	79%	0%	–
C[C@H]1[C@@H](c2ccc(C(C)(C)C)cc2)CCN1C1=NCCCN1.Cl (relative stereo) [Example 3, Cis N-(tetrahydropyrimidin-2-yl)-2-methyl-3--(4-t-butylphenyl)pyrrolidinium chloride]	14%	100%	–
